Assay results as given in patent publication US5747235A, “Silver halide light sensitive emulsion layer having enhanced photographic sensitivity” (Eastman Kodak Company, priority 1996, dated 1998).
Where a name gives a salt, the structure may show the parent alone.

Columns and labels:
Type in all cases: physicochemical
[1] = fragmentation rate constant kfr by laser flash photolysis; conditions: Table H; model compound, A and L replaced by alkyl
Summary of the method: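 DCA excited by laser in presence of biphenyl and ca. 10^-2 M donor generates X-Y radical cation; its decay was monitored at mostly 470-530 nm. Run in acetonitrile with 20% water, mostly at room temperature, some rates extrapolated from temperature dependence; oxygen purging used for decays below 10^6 s^-1.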

[2] = oxidation potential E1 by cyclic voltammetry; conditions: for E1 (V) for XY moiety: Table H, model compound, A and L replaced by alkyl
Summary of the method: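 Compound in 80:20 (v/v) acetonitrile/water with 0.1M lithium perchlorate, nitrogen-purged 10 minutes. Glassy carbon working, platinum wire counter and saturated calomel reference electrodes; 25° C, sweep rate 0.1 V/sec. E1 is the voltammetric peak potential vs. SCE.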

[3] = oxidation potential E2 of radical X by laser flash photolysis; conditions: Table H; model compound, A and L replaced by alkyl
Summary of the method: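 Radical X· generated by fragmentation of X-Y·+, formed via 410 nm laser-excited cyanoanthracene (ca. 2×10^-5–10^-4 M) with biphenyl (ca. 0.1 M) cosensitiser and X-Y (ca. 10^-3 M) in acetonitrile or 80:20 acetonitrile/water. E2 bracketed by observing second-acceptor reduction (DCA −0.91 V, TriCA −0.67 V, TCA −0.44 V) by transient absorption near 705–715 nm.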

SMILES | kfr (s^-1) for XY moiety [1] [s⁻¹] | E1 (V) for XY moiety [2] [V] | E1 (V) ([2]; Table II) | E1 (V) ([2]; Table III) | E1 (V) ([2]; Table X) | E2 (V) for XY moiety [3] [V] | E1 (V) ([2]; Table IV) | E1 (V) ([2]; Table IX) | E1 (V) ([2]; Table XI)
CCSCCN(c1ccc(C)cc1)[C@@H](C)C(=O)[O-].[Na+] [Compound S-3, N-(4-Methylphenyl)-N-(2-ethylthio-ethyl)alanine sodium salt] | 6e+07 | 0.34 | 0.47 | 0.38 | 0.38 | < -0.9 | – | – | –
CCSCCN(c1ccc(C)cc1)C(CC(=O)O)C(=O)O (stereo not drawn) [Compound S-8] | 1.3e+07 | 0.38 | – | 0.45 | 0.45 | < -0.9 | – | – | –
CCSCCN(c1ccccc1)C(C)C(=O)O (stereo not drawn) [Compound S-9, N-(Phenyl)-N-(2-thioethyl-ethyl)alanine sodium salt] | > 2e+07 | 0.43 | – | 0.43 | 0.43 | < -0.9 | 0.43 | – | –
CCSCCN(c1ccc(C(=O)O)cc1)C(C)C(=O)O (stereo not drawn) [Compound S-11] | > 2e+07 | 0.54 | – | – | – | < -0.9 | 0.55 | 0.54 | 0.54
CCSCCN(c1ccc(Cl)cc1)C(C)C(=O)O (stereo not drawn) [Compound S-12, N-(4-Chlorophenyl)-N-(2-thioethyl-ethyl)alanine sodium salt] | > 2e+07 | 0.40 | – | – | – | < -0.9 | 0.51 | – | 0.51
CCSCCN(c1cccc(C(N)=O)c1)C(C)C(=O)O (stereo not drawn) [Compound S-13] | > 2e+07 | 0.52 | – | – | – | < -0.9 | 0.53 | 0.53 | 0.53
CCSCCN(c1ccccc1)C(CC(=O)O)C(=O)O (stereo not drawn) [Compound S-14] | > 2e+07 | 0.48 | – | – | – | < -0.9 | – | 0.51 | 0.51
Cc1ccc(N(CCC(=O)Nc2cccc(-n3nnnc3S)c2)C(C)C(=O)O)cc1 (stereo not drawn) [PMT-1] | > 2e+07 | 0.34 | – | – | – | < -0.9 | – | – | –
CC(C(=O)O)N(CCC(=O)Nc1cccc(-n2nnnc2S)c1)c1ccccc1 (stereo not drawn) [PMT-2] | > 2e+07 | 0.43 | – | – | – | < -0.9 | – | – | –
